Data taken from article PMC3681751, “Identification of a Novel Antimicrobial Peptide from Human Hepatitis B Virus Core Protein Arginine-Rich Domain (ARD)” (PLoS Pathogens, 2013).
Like-named read-outs stand apart in the source and are kept apart here. Residues, ends and D or L forms follow the SMILES beside them.

Columns and labels:
[1] = tested on: Staphylococcus aureus ATCC 19636; test: Sepsis survival model, i.p. inoculation; type: in vivo; conditions: 4×10^6 CFU/mouse i.p., n = 10
Protocol: Three-week old male ICR mice (19 to 21 g) were purchased from BioLASCO (Taiwan). Overnight culture of bacteria in BHI broth (Difco) was subcultured in fresh BHI broth to log phase. Inoculums were diluted in BHI broth to indicated densities. To test the acute toxicity of ARD peptide in vivo, ICR male mice were inoculated intraperitoneally (i.p.) with 10 and 20 mg/kg HBc147-183 in PBS, respectively. Each group contained 5 mice. After peptide injection, the number of dead mice was recorded daily for 7 days post-injection. To test the antimicrobial activity of the ARD peptide in vivo, all mice were inoculated i.p. with Staphylococcus aureus ATCC 19636 (4×10^6 CFU/mouse) in BHI broth. Peptide HBc147-183 (10 mg/kg) was administered i.p. at 1, 1.5 and 2 hours post-inoculation. PBS (10 ml/kg) control was administered at 1 hour post-inoculation. […] Mortality was monitored daily for 7 days post-inoculation. […] The mice were anesthetized first before transferring to the IVIS imaging system (IVIS spectrum), and luminescence was measured with an exposure time of 1 minutes or less. The image system measured the number of photons and translated the data to false color images that depicted the region of strong luminescence with red, moderate luminescence with yellow and green, and mild luminescence with blue. […] Total flux (RLU) of region of interest (ROI) was quantified by the IVIS imaging software.

C. albicans (ATCC 10231) = type: cell-based, Candida albicans
Protocol: The antimicrobial activities of HBc ARD peptides were tested using a number of bacterial strains from ATCC, including Pseudomonas aeruginosa Migula strain (ATCC 27853, ampicillin-resistant), Pseudomonas aeruginosa Migula strain (ATCC 9027, ampicillin-resistant), Klebsiella pneumoniae strain (ATCC 17593), Escherichia coli strain (ATCC 25922), Staphylococcus aureus subsp. strain (ATCC 25923, methicillin-resistant), Staphylococcus aureus subsp. strain (ATCC 29213, methicillin-resistant), Staphylococcus aureus subsp. strain (ATCC 19636, methicillinresistant), and Candida albicans strain (ATCC 10231).
All peptides were purchased from Yao-Hong Biotechnology Inc. (Taipei, Taiwan). Vendors provided data of peptide characterizations, including HPLC and Mass (data not shown). Antimicrobial activity was determined as described with some modifications as detailed below. Bacteria were grown overnight in Mueller–Hinton broth (Difco) at 37°C, and during the mid-logarithmic phase, bacteria were diluted to 10^6 CFU (colony formation unit)/ml in phosphate buffer (10 mM sodium phosphate and 50 mM sodium chloride, pH 7.2). Peptides were serially diluted in the same buffer. Fifty microliter (µl) of bacteria was mixed with fifty µl of peptides at varying concentrations followed by incubation at 37°C for 3 hours without shaking. At the end of incubation, bacteria were placed on Mueller-Hinton broth agar plates, and allowed growth at 37°C overnight for measurement of minimal bactericidal concentration (MBC). […] All peptides were tested in triplicate.

Vero cells = test: Cytotoxicity, MTT assay; type: cell-based, monkey; conditions: 1 hour at 37°C; HBc147-183 at 100 µM, melittin at 3.125 µM; triplicates
Protocol: Cytotoxicity was measured for HepG2, Huh7, HEK293, and Vero cells by MTT assay. Cells were seeded at 10^4 cells/well in a 96-well plate and serial dilutions of peptides were added into each well. PBS was used as a negative control and melittin was used as a positive control. After 1 hour of incubation, the medium were replaced by fresh medium containing 10% MTT solution (Promega), and the plate was incubated for 4 hours in 5% CO2 at 37°C. The absorbance at the wavelength of 595 nm was measured by an ELISA reader (Bio-Rad model 680).

CC(C)[C@H](NC(=O)[C@@H](NC(=O)[C@@H](N)[C@@H](C)O)C(C)C)C(=O)N[C@@H](CCCNC(=N)N)C(=O)N[C@@H](CCCNC(=N)N)C(=O)N[C@@H](CCCNC(=N)N)C(=O)NCC(=O)N[C@@H](CCCNC(=N)N)C(=O)N[C@@H](CO)C(=O)N1CCC[C@H]1C(=O)N[C@@H](CCCNC(=N)N)C(=O)N[C@@H](CCCNC(=N)N)C(=O)N[C@@H](CCCNC(=N)N)C(=O)N[C@H](C(=O)N1CCC[C@H]1C(=O)N[C@@H](CO)C(=O)N1CCC[C@H]1C(=O)N[C@@H](CCCNC(=N)N)C(=O)N[C@@H](CCCNC(=N)N)C(=O)N[C@@H](CCCNC(=N)N)C(=O)N[C@@H](CCCNC(=N)N)C(=O)N[C@@H](CO)C(=O)N[C@@H](CCC(N)=O)C(=O)N[C@@H](CO)C(=O)N1CCC[C@H]1C(=O)N[C@@H](CCCNC(=N)N)C(=O)N[C@@H](CCCNC(=N)N)C(=O)N[C@@H](CCCNC(=N)N)C(=O)N[C@@H](CCCNC(=N)N)C(=O)N[C@@H](CO)C(=O)N[C@@H](CCC(N)=O)C(=O)N[C@@H](CO)C(=O)N[C@@H](CCCNC(=N)N)C(=O)N[C@@H](CCC(=O)O)C(=O)N[C@@H](CO)C(=O)N[C@@H](CCC(N)=O)C(=O)N[C@@H](CS)C(=O)O)[C@@H](C)O [HBc147-183] (H-TVVRRRGRSPRRRTPSPRRRRSQSPRRRRSQSRESQC-OH; N-terminus and C-terminus assumed)
Survival rate after 7 days ([1]; 10 mg/kg i.p. at 1.5 h post-inoculation): 70% | Survival rate after 7 days ([1]; 10 mg/kg i.p. at 2 h post-inoculation (peak of bacterial load in blood)): 40% | Antimicrobial activity, MBC (C. albicans (ATCC 10231); ATCC 10231, 3 h, pH 7.2): ~8 µM | Antimicrobial activity, MBC (C. albicans (ATCC 10231); fungi, 3 h at 37°C in phosphate buffer pH 7.2, triplicate): ~36.7 µg/mL | Cell viability / cytotoxicity (MTT) (Vero cells): low level of cytotoxicity
